BindingDB's records for doi:10.1016/j.bmcl.2009.07.064 (University of Glasgow, 2009)
pKi: −log10 of the molar value.

Tests used:
Transporter = Transporter (Rattus norvegicus, UniProt Q63380); test: Displacement of [3H]nisoxetine from NAT in Sprague-Dawley rat brain after 4 hrs by liquid scintillation analysis
[1] = molecular target: Sodium-dependent serotonin transporter (Rattus norvegicus, UniProt P31652); test: Displacement of [3H]citalopram from SERT in Sprague-Dawley rat brain after 2 hrs by liquid scintillation analysis
Chain of Sodium-dependent serotonin transporter (P31652 whole entry): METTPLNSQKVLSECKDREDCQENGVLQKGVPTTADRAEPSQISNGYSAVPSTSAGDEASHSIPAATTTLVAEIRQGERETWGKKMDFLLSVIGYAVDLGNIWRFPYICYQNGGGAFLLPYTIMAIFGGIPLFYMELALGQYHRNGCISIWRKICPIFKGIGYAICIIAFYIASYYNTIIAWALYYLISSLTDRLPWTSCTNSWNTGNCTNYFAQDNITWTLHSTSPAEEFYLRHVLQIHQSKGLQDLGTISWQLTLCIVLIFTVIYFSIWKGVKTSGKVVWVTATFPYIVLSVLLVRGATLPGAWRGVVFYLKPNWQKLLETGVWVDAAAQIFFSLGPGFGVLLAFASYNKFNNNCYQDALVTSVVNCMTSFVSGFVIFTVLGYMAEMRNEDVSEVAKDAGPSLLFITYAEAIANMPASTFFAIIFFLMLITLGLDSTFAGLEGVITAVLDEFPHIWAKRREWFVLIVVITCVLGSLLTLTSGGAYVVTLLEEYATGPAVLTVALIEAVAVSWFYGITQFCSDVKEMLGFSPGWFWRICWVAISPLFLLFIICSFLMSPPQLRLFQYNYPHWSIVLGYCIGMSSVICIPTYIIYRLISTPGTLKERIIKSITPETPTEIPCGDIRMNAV

[2] = molecular target: Sodium-dependent dopamine transporter (Rattus norvegicus, UniProt P23977); test: Displacement of [3H]WIN-35428 from DAT in Sprague-Dawley rat brain after 2 hrs by liquid scintillation analysis
Chain of Sodium-dependent dopamine transporter (P23977 whole entry): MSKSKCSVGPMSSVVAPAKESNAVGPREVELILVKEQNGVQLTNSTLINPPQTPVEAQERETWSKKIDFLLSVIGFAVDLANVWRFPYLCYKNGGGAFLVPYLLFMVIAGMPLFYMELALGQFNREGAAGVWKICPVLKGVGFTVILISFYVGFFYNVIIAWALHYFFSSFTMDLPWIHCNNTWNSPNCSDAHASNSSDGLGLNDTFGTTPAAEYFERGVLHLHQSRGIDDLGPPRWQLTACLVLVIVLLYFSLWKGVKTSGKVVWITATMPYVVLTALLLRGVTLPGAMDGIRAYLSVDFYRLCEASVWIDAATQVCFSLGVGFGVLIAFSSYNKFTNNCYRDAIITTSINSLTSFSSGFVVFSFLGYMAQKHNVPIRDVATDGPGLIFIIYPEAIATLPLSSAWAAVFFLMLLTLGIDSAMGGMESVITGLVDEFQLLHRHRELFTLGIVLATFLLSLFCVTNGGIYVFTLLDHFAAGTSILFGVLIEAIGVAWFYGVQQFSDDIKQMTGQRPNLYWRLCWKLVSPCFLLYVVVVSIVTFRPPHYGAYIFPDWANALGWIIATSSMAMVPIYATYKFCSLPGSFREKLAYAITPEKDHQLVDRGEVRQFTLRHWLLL

Chain of Transporter (Q63380 whole entry): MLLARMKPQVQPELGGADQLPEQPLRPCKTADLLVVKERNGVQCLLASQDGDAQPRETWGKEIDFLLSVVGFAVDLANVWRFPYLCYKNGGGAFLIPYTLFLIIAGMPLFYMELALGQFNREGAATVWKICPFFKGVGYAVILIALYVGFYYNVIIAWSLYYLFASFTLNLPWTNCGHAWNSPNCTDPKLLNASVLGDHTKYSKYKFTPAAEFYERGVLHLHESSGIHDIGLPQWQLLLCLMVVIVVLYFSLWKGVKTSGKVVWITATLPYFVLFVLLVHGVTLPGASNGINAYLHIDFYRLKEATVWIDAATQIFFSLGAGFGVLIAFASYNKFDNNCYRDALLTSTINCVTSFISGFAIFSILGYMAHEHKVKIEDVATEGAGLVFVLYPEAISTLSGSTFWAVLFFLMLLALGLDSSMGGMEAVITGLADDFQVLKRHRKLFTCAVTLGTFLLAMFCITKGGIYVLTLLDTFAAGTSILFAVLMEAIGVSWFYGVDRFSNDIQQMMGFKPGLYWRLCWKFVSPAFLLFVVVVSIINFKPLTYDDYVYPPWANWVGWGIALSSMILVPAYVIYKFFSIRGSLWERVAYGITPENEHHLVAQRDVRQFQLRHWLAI

Row | Compound | pKi (Transporter) | pKi [1] | pKi [2]
1 | Ic1ccc(O[C@@H](c2ccccc2)[C@H]2CNCCO2)cc1 [(2R,3S)-2-[(4-Iodophenoxy)phenylmethyl]morpholine] | 5.96 | 7.46 | 5.68
2 | Ic1ccccc1O[C@@H](c1ccccc1)[C@H]1CNCCO1 [(2R,3S)-2-[(2-Iodophenoxy)phenylmethyl]morpholine] | 8.08 | 7.29 | 6.28
3 | Ic1cccc(O[C@@H](c2ccccc2)[C@H]2CNCCO2)c1 [(2R,3S)-2-[(3-Iodophenoxy)phenylmethyl]morpholine] | 5.77 | 6.81 | 5.72
